Source: ChEMBL document CHEMBL4385643, “Design of a brain-penetrant CDK4/6 inhibitor for glioblastoma” (Bioorg Med Chem Lett, 2019)

Key:
[1] = target: Serine/threonine-protein kinase BRSK1 (Homo sapiens) (UniProt Q8TDC3); experiment: Inhibition of recombinant full length human GST-tagged BRSK1 expressed in baculovirus expression system at 0.1 uM using serine/threonine-21 peptide as substrate incubated for 60 mins by Z'-LYTE assay relative to control
[2] = target: Calcium/calmodulin-dependent protein kinase kinase 2 (Homo sapiens) (UniProt Q96RR4); experiment: Inhibition of tracer 236 binding to recombinant full length human GST-tagged CAMKK2 expressed in baculovirus expression system at 0.1 uM measured after 60 mins by Lanthascreen assay relative to control
[3] = target: CDK3/Cyclin E (Homo sapiens) (UniProt P24864+Q00526); experiment: Inhibition of tracer 236 binding to recombinant human GST-tagged CDK3/CyclinE1 expressed by baculovirus in Sf9 insect cells expression system at 0.1 uM measured after 60 mins by Lanthascreen assay relative to control
[4] = target: CDK9/cyclin T1 (Homo sapiens) (UniProt O60563+P50750); experiment: Inhibition of recombinant full length human His-tagged CDK9/CyclinT1 expressed in baculovirus expression system at 0.1 uM using CDK7/9tide peptide as substrate incubated for 60 mins by Adapta assay relative to control
[5] = target: Casein kinase I isoform delta (Homo sapiens) (UniProt P48730); experiment: Inhibition of recombinant full length human GST-tagged CK1delta expressed in baculovirus expression system at 0.1 uM using serine/threonine-11 peptide as substrate incubated for 60 mins by Z'-LYTE assay relative to control
[6] = target: Casein kinase II subunit alpha (Homo sapiens) (UniProt P68400); experiment: Inhibition of recombinant full length human His-tagged CK2 alpha 1 expressed in baculovirus expression system at 0.1 uM using serine/threonine-11 peptide as substrate incubated for 60 mins by Z'-LYTE assay relative to control
[7] = target: DNA-dependent protein kinase catalytic subunit (Homo sapiens) (UniProt P78527); experiment: Inhibition of recombinant human DNA-PK expressed in baculovirus expression system at 0.1 uM using serine/threonine-26 peptide as substrate incubated for 60 mins by Z'-LYTE assay relative to control
[8] = target: Ephrin type-A receptor 3 (Homo sapiens) (UniProt P29320); experiment: Inhibition of tracer 236 binding to recombinant human His-tagged EPHA3 (569 to 976 residues) expressed in baculovirus expression system at 0.1 uM measured after 60 mins by Lanthascreen assay relative to control
[9] = target: Ephrin type-B receptor 1 (Homo sapiens) (UniProt P54762); experiment: Inhibition of recombinant human GST-tagged EPHB1 catalytic domain (613 to 881 residues) expressed in baculovirus expression system at 0.1 uM using tyrosine-2 peptide as substrate incubated for 60 mins by Z'-LYTE assay relative to control
[10] = target: Beta-adrenergic receptor kinase 1 (Homo sapiens) (UniProt P25098); experiment: Inhibition of recombinant full length human His-tagged GRK2 expressed in baculovirus expression system at 0.1 uM using serine/threonine-16 peptide as substrate incubated for 60 mins by Z'-LYTE assay relative to control
[11] = target: Homeodomain-interacting protein kinase 1 (Homo sapiens) (UniProt Q86Z02); experiment: Inhibition of recombinant human GST-tagged HIPK1 catalytic domain (158 to 555 residues) expressed in baculovirus expression system at 0.1 uM using serine/threonine-9 peptide as substrate incubated for 60 mins by Z'-LYTE assay relative to control
[12] = target: Insulin-like growth factor 1 receptor (Homo sapiens) (UniProt P08069); experiment: Inhibition of recombinant human His-tagged IGF1R catalytic domain (960 to 1397 residues) expressed in baculovirus expression system at 0.1 uM using tyrosine-1 peptide as substrate incubated for 60 mins by Z'-LYTE assay relative to control
[13] = target: Insulin receptor (Homo sapiens) (UniProt P06213); experiment: Inhibition of recombinant human GST-tagged INSR (1011 to 1382 residues) expressed in baculovirus expression system at 0.1 uM using tyrosine-1 peptide as substrate incubated for 60 mins by Z'-LYTE assay relative to control
[14] = target: Mitogen-activated protein kinase 8 (Homo sapiens) (UniProt P45983); experiment: Inhibition of recombinant full length human His-tagged JNK1alpha1 expressed in baculovirus expression system at 0.1 uM using serine/threonine-4 peptide as substrate incubated for 60 mins by Z'-LYTE assay relative to control
[15] = target: Mitogen-activated protein kinase 10 (Homo sapiens) (UniProt P53779); experiment: Inhibition of recombinant full length human GST-tagged JNK3 expressed in baculovirus expression system at 0.1 uM using serine/threonine-4 peptide as substrate incubated for 60 mins by Z'-LYTE assay relative to control
[16] = target: Mitogen-activated protein kinase kinase kinase kinase 4 (Homo sapiens) (UniProt O95819); experiment: Inhibition of recombinant human GST-tagged MAP4K4 catalytic domain (1 to 328 residues) expressed in baculovirus expression system at 0.1 uM using serine/threonine-7 peptide as substrate incubated for 60 mins by Z'-LYTE assay relative to control
[17] = target: MAP/microtubule affinity-regulating kinase 3 (Homo sapiens) (UniProt P27448); experiment: Inhibition of recombinant full length human GST-tagged MARK3 expressed in baculovirus expression system at 0.1 uM using serine/threonine-25 peptide as substrate incubated for 60 mins by Z'-LYTE assay relative to control
[18] = target: Hepatocyte growth factor receptor (Homo sapiens) (UniProt P08581); experiment: Inhibition of recombinant human His-tagged MET (956 to 1390 residues) expressed in baculovirus expression system at 0.1 uM using tyrosine-6 peptide as substrate incubated for 60 mins by Z'-LYTE assay relative to control
[19] = target: Serine/threonine-protein kinase Nek1 (Homo sapiens) (UniProt Q96PY6); experiment: Inhibition of recombinant full length human GST-tagged NEK1 catalytic domain (1 to 505 amino acids) expressed in baculovirus expression system at 0.1 uM using serine/threonine-7 peptide as substrate incubated for 60 mins by Z'-LYTE assay relative to control
[20] = target: Serine/threonine-protein kinase Nek4 (Homo sapiens) (UniProt P51957); experiment: Inhibition of recombinant full length human GST-tagged NEK4 expressed in baculovirus expression system at 0.1 uM using serine/threonine-17 peptide as substrate incubated for 60 mins by Z'-LYTE assay relative to control
[21] = target: Serine/threonine-protein kinase PAK 6 (Homo sapiens) (UniProt Q9NQU5); experiment: Inhibition of recombinant full length human His-tagged PAK6 expressed in baculovirus expression system at 0.1 uM using serine/threonine-20 peptide as substrate incubated for 60 mins by Z'-LYTE assay relative to control
[22] = target: Serine/threonine-protein kinase Sgk3 (Homo sapiens) (UniProt Q96BR1); experiment: Inhibition of recombinant human GST-tagged SGK3 catalytic domain (87 to 496 residues) expressed in baculovirus expression system at 0.1 uM using serine/threonine-6 peptide as substrate incubated for 60 mins by Z'-LYTE assay relative to control
[23] = target: Tyrosine-protein kinase ZAP-70 (Homo sapiens) (UniProt P43403); experiment: Inhibition of recombinant full length human His-tagged ZAP70 expressed in baculovirus expression system at 0.1 uM using tyrosine-7 peptide as substrate incubated for 60 mins by Z'-LYTE assay relative to control
Sequence of Tyrosine-protein kinase ZAP-70 (Homo sapiens) (P43403 whole entry): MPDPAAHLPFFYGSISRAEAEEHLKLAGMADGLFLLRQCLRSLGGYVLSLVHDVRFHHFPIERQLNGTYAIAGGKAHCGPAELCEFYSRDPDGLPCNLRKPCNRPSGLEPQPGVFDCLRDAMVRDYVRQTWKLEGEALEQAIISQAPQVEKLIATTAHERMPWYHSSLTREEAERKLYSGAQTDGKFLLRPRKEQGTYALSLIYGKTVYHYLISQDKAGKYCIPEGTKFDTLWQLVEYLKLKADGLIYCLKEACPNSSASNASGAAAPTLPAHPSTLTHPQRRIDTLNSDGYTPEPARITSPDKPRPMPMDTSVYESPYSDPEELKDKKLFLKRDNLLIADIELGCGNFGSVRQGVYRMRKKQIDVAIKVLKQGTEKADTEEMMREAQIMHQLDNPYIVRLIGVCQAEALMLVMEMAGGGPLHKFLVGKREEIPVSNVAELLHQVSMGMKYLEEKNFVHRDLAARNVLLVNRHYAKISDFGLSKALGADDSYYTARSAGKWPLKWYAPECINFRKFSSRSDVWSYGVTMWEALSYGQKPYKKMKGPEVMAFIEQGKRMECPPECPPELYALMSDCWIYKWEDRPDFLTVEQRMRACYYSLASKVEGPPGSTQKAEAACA

Sequence of Insulin-like growth factor 1 receptor (Homo sapiens) (P08069 31-736 limits assumed): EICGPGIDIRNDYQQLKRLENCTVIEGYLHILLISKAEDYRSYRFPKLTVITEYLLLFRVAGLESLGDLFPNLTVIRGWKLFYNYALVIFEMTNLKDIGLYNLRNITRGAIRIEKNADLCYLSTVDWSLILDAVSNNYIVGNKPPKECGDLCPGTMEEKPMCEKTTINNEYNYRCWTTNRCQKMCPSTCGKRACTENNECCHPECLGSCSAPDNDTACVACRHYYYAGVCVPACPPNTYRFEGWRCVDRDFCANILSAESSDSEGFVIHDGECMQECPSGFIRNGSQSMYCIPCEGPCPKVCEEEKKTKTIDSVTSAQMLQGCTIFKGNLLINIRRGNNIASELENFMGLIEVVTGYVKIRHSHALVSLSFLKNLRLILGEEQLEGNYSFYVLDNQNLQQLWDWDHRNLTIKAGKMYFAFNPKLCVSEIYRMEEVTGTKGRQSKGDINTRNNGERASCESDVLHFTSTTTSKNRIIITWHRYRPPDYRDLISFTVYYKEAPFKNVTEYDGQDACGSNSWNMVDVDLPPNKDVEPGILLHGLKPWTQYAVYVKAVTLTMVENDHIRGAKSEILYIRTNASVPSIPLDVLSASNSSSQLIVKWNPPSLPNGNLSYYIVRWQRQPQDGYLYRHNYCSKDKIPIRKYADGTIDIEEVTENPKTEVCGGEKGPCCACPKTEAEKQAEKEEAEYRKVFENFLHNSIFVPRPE
Sequence of Insulin-like growth factor 1 receptor (Homo sapiens) (P08069 741-1367 limits assumed): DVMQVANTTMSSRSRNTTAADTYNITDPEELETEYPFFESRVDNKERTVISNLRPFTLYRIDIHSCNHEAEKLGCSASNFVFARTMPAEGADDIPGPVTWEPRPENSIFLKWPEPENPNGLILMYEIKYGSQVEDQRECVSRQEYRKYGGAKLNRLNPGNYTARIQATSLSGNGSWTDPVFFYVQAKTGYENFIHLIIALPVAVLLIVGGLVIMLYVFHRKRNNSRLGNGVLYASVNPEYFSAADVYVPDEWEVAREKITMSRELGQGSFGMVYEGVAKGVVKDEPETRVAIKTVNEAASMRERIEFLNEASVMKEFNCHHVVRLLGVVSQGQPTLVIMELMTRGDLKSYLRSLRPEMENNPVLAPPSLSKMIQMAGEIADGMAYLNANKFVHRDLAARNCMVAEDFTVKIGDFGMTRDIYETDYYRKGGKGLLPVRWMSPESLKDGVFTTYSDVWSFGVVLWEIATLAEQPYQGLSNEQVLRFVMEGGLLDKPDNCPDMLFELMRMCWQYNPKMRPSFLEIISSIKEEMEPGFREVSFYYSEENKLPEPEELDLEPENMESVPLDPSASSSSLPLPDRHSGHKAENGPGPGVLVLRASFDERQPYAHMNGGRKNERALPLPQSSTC
Sequence of Mitogen-activated protein kinase 8 (Homo sapiens) (P45983 whole entry): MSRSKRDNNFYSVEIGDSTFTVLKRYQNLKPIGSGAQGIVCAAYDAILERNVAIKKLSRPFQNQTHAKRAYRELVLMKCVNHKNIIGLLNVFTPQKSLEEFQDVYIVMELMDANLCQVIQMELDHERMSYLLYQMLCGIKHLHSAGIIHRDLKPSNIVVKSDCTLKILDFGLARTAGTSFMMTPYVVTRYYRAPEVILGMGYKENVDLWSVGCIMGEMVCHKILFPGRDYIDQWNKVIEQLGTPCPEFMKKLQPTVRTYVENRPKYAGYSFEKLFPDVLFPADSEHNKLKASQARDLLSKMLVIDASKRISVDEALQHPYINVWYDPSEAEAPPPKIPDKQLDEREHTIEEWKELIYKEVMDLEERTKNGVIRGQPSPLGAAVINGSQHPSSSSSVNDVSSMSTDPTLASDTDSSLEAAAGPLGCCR
Sequence of Homeodomain-interacting protein kinase 1 (Homo sapiens) (Q86Z02 whole entry, looked up, the tested form may be a part): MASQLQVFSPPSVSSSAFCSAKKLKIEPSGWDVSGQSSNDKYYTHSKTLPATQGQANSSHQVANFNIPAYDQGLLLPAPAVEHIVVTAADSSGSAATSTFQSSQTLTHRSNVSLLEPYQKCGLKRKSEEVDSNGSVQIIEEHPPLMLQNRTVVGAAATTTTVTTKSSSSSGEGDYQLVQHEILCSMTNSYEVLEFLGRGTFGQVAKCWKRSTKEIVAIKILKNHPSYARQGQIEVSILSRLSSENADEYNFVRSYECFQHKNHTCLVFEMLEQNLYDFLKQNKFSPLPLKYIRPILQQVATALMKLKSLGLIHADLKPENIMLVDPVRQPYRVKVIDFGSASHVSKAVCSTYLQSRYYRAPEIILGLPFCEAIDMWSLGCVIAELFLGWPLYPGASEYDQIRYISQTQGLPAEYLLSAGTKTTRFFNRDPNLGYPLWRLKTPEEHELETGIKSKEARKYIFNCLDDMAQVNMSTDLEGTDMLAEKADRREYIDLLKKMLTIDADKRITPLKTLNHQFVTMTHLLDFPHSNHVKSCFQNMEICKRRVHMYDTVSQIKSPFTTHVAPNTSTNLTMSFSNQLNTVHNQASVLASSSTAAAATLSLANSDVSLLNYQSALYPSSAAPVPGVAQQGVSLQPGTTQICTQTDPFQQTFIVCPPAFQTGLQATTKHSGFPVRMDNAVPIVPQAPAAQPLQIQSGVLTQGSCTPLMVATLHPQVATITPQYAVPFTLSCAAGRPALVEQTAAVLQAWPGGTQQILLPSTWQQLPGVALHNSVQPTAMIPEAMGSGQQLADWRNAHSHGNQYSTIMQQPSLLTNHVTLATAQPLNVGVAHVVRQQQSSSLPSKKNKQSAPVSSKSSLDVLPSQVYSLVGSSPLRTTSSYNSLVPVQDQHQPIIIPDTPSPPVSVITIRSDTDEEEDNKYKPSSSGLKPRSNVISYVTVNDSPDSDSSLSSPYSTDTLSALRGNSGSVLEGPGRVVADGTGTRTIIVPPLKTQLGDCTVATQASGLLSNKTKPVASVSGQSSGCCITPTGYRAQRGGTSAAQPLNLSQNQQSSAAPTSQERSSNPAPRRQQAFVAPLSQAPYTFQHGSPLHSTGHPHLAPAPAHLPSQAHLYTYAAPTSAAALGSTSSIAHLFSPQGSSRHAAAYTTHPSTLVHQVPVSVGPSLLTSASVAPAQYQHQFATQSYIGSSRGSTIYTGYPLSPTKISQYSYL
Sequence of Calcium/calmodulin-dependent protein kinase kinase 2 (Homo sapiens) (Q96RR4 2-588 limits assumed): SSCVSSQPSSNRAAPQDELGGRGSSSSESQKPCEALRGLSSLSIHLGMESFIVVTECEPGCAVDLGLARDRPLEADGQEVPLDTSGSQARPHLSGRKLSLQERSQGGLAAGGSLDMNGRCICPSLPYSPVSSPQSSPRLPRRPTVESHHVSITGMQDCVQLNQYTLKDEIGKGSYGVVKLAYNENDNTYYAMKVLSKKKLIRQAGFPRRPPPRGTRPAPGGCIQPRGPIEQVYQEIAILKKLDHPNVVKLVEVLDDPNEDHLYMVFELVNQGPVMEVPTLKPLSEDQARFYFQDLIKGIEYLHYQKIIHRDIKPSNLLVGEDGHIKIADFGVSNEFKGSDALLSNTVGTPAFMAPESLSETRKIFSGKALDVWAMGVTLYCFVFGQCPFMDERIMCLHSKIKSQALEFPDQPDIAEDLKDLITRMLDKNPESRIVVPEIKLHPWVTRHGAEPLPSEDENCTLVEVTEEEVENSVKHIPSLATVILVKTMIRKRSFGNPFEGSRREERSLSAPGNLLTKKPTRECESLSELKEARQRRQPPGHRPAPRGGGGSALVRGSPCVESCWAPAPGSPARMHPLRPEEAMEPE
Sequence of Mitogen-activated protein kinase 10 (Homo sapiens) (P53779 whole entry, the tested form may be a part): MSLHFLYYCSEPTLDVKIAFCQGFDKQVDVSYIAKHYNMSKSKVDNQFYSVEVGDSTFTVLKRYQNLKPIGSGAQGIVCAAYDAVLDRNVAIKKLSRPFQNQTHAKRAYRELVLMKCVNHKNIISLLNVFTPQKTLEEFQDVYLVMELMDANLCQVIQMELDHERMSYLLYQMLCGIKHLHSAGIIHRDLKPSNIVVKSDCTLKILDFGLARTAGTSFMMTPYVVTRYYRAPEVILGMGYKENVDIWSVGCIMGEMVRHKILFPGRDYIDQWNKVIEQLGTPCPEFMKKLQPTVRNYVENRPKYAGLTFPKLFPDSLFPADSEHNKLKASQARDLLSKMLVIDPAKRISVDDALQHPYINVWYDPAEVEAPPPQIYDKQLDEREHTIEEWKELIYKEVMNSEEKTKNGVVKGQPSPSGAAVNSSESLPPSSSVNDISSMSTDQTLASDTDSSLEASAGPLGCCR
Sequence of Casein kinase II subunit alpha (Homo sapiens) (P68400 whole entry, looked up): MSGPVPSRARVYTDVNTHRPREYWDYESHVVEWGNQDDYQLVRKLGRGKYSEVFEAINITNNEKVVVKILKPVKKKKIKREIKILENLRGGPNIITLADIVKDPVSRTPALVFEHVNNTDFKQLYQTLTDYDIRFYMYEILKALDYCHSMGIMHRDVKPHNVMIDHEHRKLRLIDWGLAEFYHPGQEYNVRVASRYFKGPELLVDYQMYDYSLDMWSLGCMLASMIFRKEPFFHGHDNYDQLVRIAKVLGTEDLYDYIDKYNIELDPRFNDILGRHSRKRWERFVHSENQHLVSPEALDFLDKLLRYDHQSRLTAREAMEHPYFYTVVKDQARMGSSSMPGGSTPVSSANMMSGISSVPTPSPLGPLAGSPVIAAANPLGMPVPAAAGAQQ

| Compound | inhibition [1] [%] | inhibition [2] [%] | inhibition [3] [%] | inhibition [4] [%] | inhibition [5] [%] | inhibition [6] [%] | inhibition [7] [%] | inhibition [8] [%] | inhibition [9] [%] | inhibition [10] [%] | inhibition [11] [%] | inhibition [12] [%] | inhibition [13] [%] | inhibition [14] [%] | inhibition [15] [%] | inhibition [16] [%] | inhibition [17] [%] | inhibition [18] [%] | inhibition [19] [%] | inhibition [20] [%] | also measured |
| --- | --- | --- | --- | --- | --- | --- | --- | --- | --- | --- | --- | --- | --- | --- | --- | --- | --- | --- | --- | --- | --- |
| CCN1CC2(C1)CN(c1ccc(Nc3ncc(F)c(-c4cnn5c4[C@H](C)CCCC5)n3)nc1)C2 | 44 | 44 | 56.5 | 59.5 | 5 | 0.5 | 6 | 6.5 | 8 | 0.5 | 4.5 | 7 | -1.5 | 78 | 66.5 | 39 | 15 | 10 | 0 | 3.5 | inhibition [21]: 3%; inhibition [22]: 7%; inhibition [23]: 7% |
| CCN1CCN(Cc2ccc(Nc3ncc(F)c(-c4cc(F)c5nc(C)n(C(C)C)c5c4)n3)nc2)CC1 [ABEMACICLIB] | 18 | 69.4 | 24.5 | 92.5 | 10.5 | 31.5 | 14 | 2.1 | 0.5 | 0 | 78.5 | 14 | 3.5 | 46.2 | 59.1 | 89.5 | 16 | 32.5 | 14 | 42.5 | inhibition [21]: 1%; inhibition [22]: 12%; inhibition [23]: -0.5% |
